Data taken from the supplement of paper PMC4862054.

system: SK-BR-3; assay: normalised response (% of control), CellTiter-Glo; higher = more viable cells (100 = DMSO, 0 = benzethonium chloride kill control); conditions: incubation time: 72 h
Experimental: (§1)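 DSRT, 72 h incubation, CellTox Green / CellTiter-Glo readout. Signal is normalised to DMSO and benzethonium chloride controls. Value is the normalised response at dose 3.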

SMILES | normalised response
CCNC(=O)CCC/C=C\C[C@@H]1[C@@H](/C=C/[C@@H](O)CCc2ccccc2)[C@H](O)C[C@@H]1O [Bimatoprost] (55 nM) | 91.7%
COc1cc(Nc2c(C#N)cnc3cc(OCCCN4CCN(C)CC4)c(OC)cc23)c(Cl)cc1Cl [Bosutinib] (100 nM) | 109%
CCN(CC)CCCC(C)Nc1ccnc2cc(Cl)ccc12 (stereo not given) [Chloroquine] (1000 nM) | 82.9%
CC(C)(C)c1nc(-c2cccc(NS(=O)(=O)c3c(F)cccc3F)c2F)c(-c2ccnc(N)n2)s1 [Dabrafenib] (25 nM) | 110%
CO[C@@]12[C@H](COC(N)=O)C3=C(C(=O)C(C)=C(N)C3=O)N1C[C@@H]1N[C@@H]12 [Mitomycin C] (100 nM) | 94%
CC1(C)CCC(c2ccc(Cl)cc2)=C(CN2CCN(c3ccc(C(=O)NS(=O)(=O)c4ccc(N[C@H](CCN5CCOCC5)CSc5ccccc5)c(S(=O)(=O)C(F)(F)F)c4)cc3)CC2)C1 [Navitoclax] (100 nM) | 88.5%
CC(C)n1cnc2c(NCCc3ccc(O)cc3)nc(-c3csc4ccccc34)nc21 [StemRegenin 1] (100 nM) | 103%

system: DU-4475; assay: as above; conditions: incubation time: 72 h
Experimental: as §1

SMILES | normalised response
CCn1c(C(=O)N(C2CC2)C2CC2)cc2c3c(ncn3C)c(Nc3cc(C)n(C)n3)nc21 (100 nM) | 99.2%
COc1ccc(S(=O)(=O)Nc2cccnc2Nc2ccc(O)cc2)cc1 [ABT-751] (100 nM) | 99.6%
CCNC(=O)CCC/C=C\C[C@@H]1[C@@H](/C=C/[C@@H](O)CCc2ccccc2)[C@H](O)C[C@@H]1O [Bimatoprost] (55 nM) | 94.7%
COc1cc(Nc2c(C#N)cnc3cc(OCCCN4CCN(C)CC4)c(OC)cc23)c(Cl)cc1Cl [Bosutinib] (100 nM) | 97.5%
CCN(CC)CCCC(C)Nc1ccnc2cc(Cl)ccc12 (stereo not given) [Chloroquine] (1000 nM) | 93%
CC(C)(C)c1nc(-c2cccc(NS(=O)(=O)c3c(F)cccc3F)c2F)c(-c2ccnc(N)n2)s1 [Dabrafenib] (25 nM) | 82.6%
CO[C@@]12[C@H](COC(N)=O)C3=C(C(=O)C(C)=C(N)C3=O)N1C[C@@H]1N[C@@H]12 [Mitomycin C] (100 nM) | 99%
CC1(C)CCC(c2ccc(Cl)cc2)=C(CN2CCN(c3ccc(C(=O)NS(=O)(=O)c4ccc(N[C@H](CCN5CCOCC5)CSc5ccccc5)c(S(=O)(=O)C(F)(F)F)c4)cc3)CC2)C1 [Navitoclax] (100 nM) | 92.9%
CC(C)n1cnc2c(NCCc3ccc(O)cc3)nc(-c3csc4ccccc34)nc21 [StemRegenin 1] (100 nM) | 98.4%

system: BT-474; assay: as above; conditions: incubation time: 72 h
Experimental: as §1

SMILES | normalised response
CCn1c(C(=O)N(C2CC2)C2CC2)cc2c3c(ncn3C)c(Nc3cc(C)n(C)n3)nc21 (100 nM) | 100%
COc1ccc(S(=O)(=O)Nc2cccnc2Nc2ccc(O)cc2)cc1 [ABT-751] (100 nM) | 99.2%
CCNC(=O)CCC/C=C\C[C@@H]1[C@@H](/C=C/[C@@H](O)CCc2ccccc2)[C@H](O)C[C@@H]1O [Bimatoprost] (55 nM) | 97.2%
COc1cc(Nc2c(C#N)cnc3cc(OCCCN4CCN(C)CC4)c(OC)cc23)c(Cl)cc1Cl [Bosutinib] (100 nM) | 104%
CCN(CC)CCCC(C)Nc1ccnc2cc(Cl)ccc12 (stereo not given) [Chloroquine] (1000 nM) | 101%
CC(C)(C)c1nc(-c2cccc(NS(=O)(=O)c3c(F)cccc3F)c2F)c(-c2ccnc(N)n2)s1 [Dabrafenib] (25 nM) | 99.2%
CO[C@@]12[C@H](COC(N)=O)C3=C(C(=O)C(C)=C(N)C3=O)N1C[C@@H]1N[C@@H]12 [Mitomycin C] (100 nM) | 95.2%
CC1(C)CCC(c2ccc(Cl)cc2)=C(CN2CCN(c3ccc(C(=O)NS(=O)(=O)c4ccc(N[C@H](CCN5CCOCC5)CSc5ccccc5)c(S(=O)(=O)C(F)(F)F)c4)cc3)CC2)C1 [Navitoclax] (100 nM) | 88.1%
CC(C)n1cnc2c(NCCc3ccc(O)cc3)nc(-c3csc4ccccc34)nc21 [StemRegenin 1] (100 nM) | 100%

system: CAL-120; assay: as above; conditions: incubation time: 72 h
Experimental: as §1

SMILES | normalised response
CCn1c(C(=O)N(C2CC2)C2CC2)cc2c3c(ncn3C)c(Nc3cc(C)n(C)n3)nc21 (100 nM) | 95.7%
COc1ccc(S(=O)(=O)Nc2cccnc2Nc2ccc(O)cc2)cc1 [ABT-751] (100 nM) | 95.2%
CCNC(=O)CCC/C=C\C[C@@H]1[C@@H](/C=C/[C@@H](O)CCc2ccccc2)[C@H](O)C[C@@H]1O [Bimatoprost] (55 nM) | 99.7%
COc1cc(Nc2c(C#N)cnc3cc(OCCCN4CCN(C)CC4)c(OC)cc23)c(Cl)cc1Cl [Bosutinib] (100 nM) | 100%
CCN(CC)CCCC(C)Nc1ccnc2cc(Cl)ccc12 (stereo not given) [Chloroquine] (1000 nM) | 110%
CC(C)(C)c1nc(-c2cccc(NS(=O)(=O)c3c(F)cccc3F)c2F)c(-c2ccnc(N)n2)s1 [Dabrafenib] (25 nM) | 99.8%
CO[C@@]12[C@H](COC(N)=O)C3=C(C(=O)C(C)=C(N)C3=O)N1C[C@@H]1N[C@@H]12 [Mitomycin C] (100 nM) | 91.8%
CC1(C)CCC(c2ccc(Cl)cc2)=C(CN2CCN(c3ccc(C(=O)NS(=O)(=O)c4ccc(N[C@H](CCN5CCOCC5)CSc5ccccc5)c(S(=O)(=O)C(F)(F)F)c4)cc3)CC2)C1 [Navitoclax] (100 nM) | 87.2%
CC(C)n1cnc2c(NCCc3ccc(O)cc3)nc(-c3csc4ccccc34)nc21 [StemRegenin 1] (100 nM) | 112%

system: HCC1937; assay: as above; conditions: incubation time: 72 h
Experimental: as §1

SMILES | normalised response
CCn1c(C(=O)N(C2CC2)C2CC2)cc2c3c(ncn3C)c(Nc3cc(C)n(C)n3)nc21 (100 nM) | 97.4%
COc1ccc(S(=O)(=O)Nc2cccnc2Nc2ccc(O)cc2)cc1 [ABT-751] (100 nM) | 92.5%
CCNC(=O)CCC/C=C\C[C@@H]1[C@@H](/C=C/[C@@H](O)CCc2ccccc2)[C@H](O)C[C@@H]1O [Bimatoprost] (55 nM) | 97.1%
COc1cc(Nc2c(C#N)cnc3cc(OCCCN4CCN(C)CC4)c(OC)cc23)c(Cl)cc1Cl [Bosutinib] (100 nM) | 95.5%
CCN(CC)CCCC(C)Nc1ccnc2cc(Cl)ccc12 (stereo not given) [Chloroquine] (1000 nM) | 90.6%
CC(C)(C)c1nc(-c2cccc(NS(=O)(=O)c3c(F)cccc3F)c2F)c(-c2ccnc(N)n2)s1 [Dabrafenib] (25 nM) | 102%
